Measurements published in patent US7742877B1, “Methods, apparatus and computer program products for formulating culture media” (Becton, Dickinson & Company, priority 1999, dated 2010).

How the values were obtained:
[1] = test system: bacterial cells genetically engineered to produce a heterologous protein of interest; assay: Protein production by bacterial cells grown in culture medium containing a test peptide (QSAR example, exemplary data); format: cell-based; details: peptide included in culture medium of bacterial cells; exemplary (hypothetical) data
Text: The present invention may be used to identify a peptide to include as a component of a culture medium. The culture medium may be used to culture bacterial cells genetically engineered to produce a heterologous protein of interest. Accordingly, it would be desirable to identify a peptide which when included in a culture medium will enhance protein production by bacterial cells grown in the culture medium (i.e., to satisfy a test requirement).
In this example, eight test peptides are selected from a tetrapeptide library: Asp-Lys-Ala-His (SEQ. ID. NO:23), Asp-Trp-Pro-Ala (SEQ. ID. NO:24), Glu-Ser-Met-His (SEQ. ID. NO:25), Gly-Val-Asn-Glu (SEQ. ID. NO:26), His-Glu-Asp-Val (SEQ. ID. NO:27), Glu-Thr-Gly-Ser (SEQ. ID. NO:28), His-Tyr-Gly-Val (SEQ. ID. NO:29, and Asp-Phe-Gly-Val (SEQ. ID. NO:30); Table 3). The test peptides may be selected from the library by any means known in the art. The values for three parameters (molecular weight, total charge, and mlogp, i.e., hydrophobicity) may be determined for each of the eight peptides. The indicia of the property, in this example a particular biological activity (i.e., protein production), may be determined for the eight peptides as well.

[2] = test system: mammalian hybridoma cells producing and secreting antibodies; assay: Antibody production by hybridoma cells cultured in medium containing a test peptide (nearest neighbor example, model data); format: cell-based; details: for Observed Activity (antibody production): candidate peptides, (hypothetical) biological activities; for Biol. Act. (antibody production): training set peptide added to hybridoma culture medium, model data
Text: One particular, and preferred, method of identifying compounds based on a distance function is nearest neighbor analysis. This method can be illustrated using the following simplified example with model data.
According to this illustrative example, the present invention can be used to identify a peptide as a culture medium component, e.g., for mammalian hybridoma cells producing and secreting antibodies. In particular, it is desirable to identify peptides, which when added to culture medium, will promote antibody production by hybridoma cells at a level greater than a test requirement. Four test peptides (Asp-Lys-Ala-His (SEQ. ID NO:23), Asp-Trp-Pro-Ala (SEQ. ID NO:24), Glu-Ser-Met-His (SEQ. ID NO:25), Gly-Val-Asn-Glu (SEQ. ID NO:26); i.e., a training set) may be selected from a peptide library as described above with respect to the QSAR example. Values to describe the various parameters of the peptides, for example, hydrophobicity (i.e., mlogp), molecular weight, and total charge may be calculated for each peptide (Table 5). Each peptide may be added to hybridoma culture medium and antibody production (i.e., biological activity) may be measured for the cells cultured in each culture medium (values shown in Table 5).
The peptides in the candidate set will then be assigned predicted indicia of the property based the closest peptide in the training set (Table 9).

| Substance | Biol. Act. (protein production) [1] | Observed Activity (antibody production) [2] | Biol. Act. (antibody production) [2] |
| --- | --- | --- | --- |
| Asp-Phe-Gly-Val (DFGV) | 22.0 | 22.0 | – |
| His-Tyr-Gly-Val (HYGV) | 23.6 | 23.6 | – |
| Glu-Ser-Met-His (ESMH) | 19.3 | – | 19.3 |
| Glu-Thr-Gly-Ser (ETGS) | 10.2 | 10.2 | – |
| His-Glu-Asp-Val (HEDV) | 18.5 | 18.5 | – |
| Asp-Lys-Ala-His (DKAH) | 15.0 | – | 15.0 |
| Gly-Val-Asn-Glu (GVNE) | 14.4 | – | 14.4 |
| Asp-Trp-Pro-Ala (DWPA) | 25.0 | – | 25.0 |
